Assay results from ChEMBL document CHEMBL1129521, “Molecular modeling of azole antifungal agents active against Candida albicans. 1. A comparative molecular field analysis study” (1996).

What follows are compounds tested on Candida albicans (assay: In vitro antimycotic activity of compound against Candida albicans was determined as -log MIC90 compound to that of -log MIC90 bifonazole).
Format: functional

How did the Ratio turn out when Cn1cc(-c2ccccc2)c(C(c2ccccc2)n2ccnc2)c1 (stereo unspecified) was run?
Its Ratio is 0.6.

COc1ccc(C(Cc2ccc([N+](=O)[O-])cc2)n2ccnc2)cc1 (stereo unspecified) was tested. Which Ratio did it give?
Its Ratio is 1.5.

COc1ccc(C(Cc2ccc(Cl)cc2)n2ccnc2)cc1 (stereo unspecified) was tested. Which Ratio did it give?
Its Ratio is 0.6.

How did the Ratio turn out when COc1ccc(C(Cc2ccccc2Cl)n2ccnc2)cc1 (stereo unspecified) was run?
The Ratio was 1.8.

How did the Ratio turn out when c1ccc(C(c2ccc(-n3cccc3)cc2)n2ccnc2)cc1 (stereo unspecified) was run?
Its Ratio is 0.6.

Which Ratio does the source give for Nc1ccc(C(c2ccccc2)n2ccnc2)cc1 (stereo unspecified) here?
Its Ratio is 0.3.

With Fc1ccc(-n2ccc(C(c3ccccc3)n3ccnc3)c2)cc1 (stereo unspecified) as the compound, how does the Ratio read?
The Ratio was 0.6.

Which Ratio does the source give for COc1ccc(C(Cc2ccc(Cl)cc2Cl)n2ccnc2)cc1 (stereo unspecified) here?
Its Ratio is 0.6.

For CCC(c1ccc(Cl)cc1)C(c1ccc(OC)cc1)n1cnnc1 (stereo unspecified), which Ratio is on record?
Its Ratio is 1.8.

How did the Ratio turn out when COc1ccc(C(Cc2ccc(Cl)cc2)n2cncn2)cc1 (stereo unspecified) was run?
The Ratio was 1.5.

For COc1ccc(C(Cc2ccccc2F)n2ccnc2)cc1 (stereo unspecified), which Ratio is on record?
Its Ratio is 1.8.

For COc1ccc(C(Cc2ccc(F)cc2)n2ccnc2)cc1 (stereo unspecified), which Ratio is on record?
The Ratio was 1.2.

Clc1ccc(C(c2ccn(-c3ccc(Cl)cc3)c2)n2ccnc2)cc1 (stereo unspecified) was tested. Which Ratio did it give?
The Ratio was 0.6.

With COc1ccc(CC(c2ccc(OC)cc2)n2cnnc2)cc1 (stereo unspecified) as the compound, how does the Ratio read?
Its Ratio is 1.8.

With COc1ccc(C(Cc2ccc(N)cc2)n2ccnc2)cc1 (stereo unspecified) as the compound, how does the Ratio read?
Its Ratio is 0.3.

How did the Ratio turn out when Cn1cc(-c2ccccc2)c(C(c2ccc3ccccc3c2)n2ccnc2)c1 (stereo unspecified) was run?
The Ratio was 2.4.

How did the Ratio turn out when COc1ccc(C(Cc2ccc(Cl)cc2)n2cnnc2)cc1 (stereo unspecified) was run?
The Ratio was 1.8.

How did the Ratio turn out when Clc1ccc(C(c2ccc(-n3cccc3)cc2)n2ccnc2)cc1 (stereo unspecified) was run?
Its Ratio is 0.3.

How did the Ratio turn out when Cn1cc(-c2ccccc2)c(C(c2cccc3ccccc23)n2ccnc2)c1 (stereo unspecified) was run?
The Ratio was 1.5.

How did the Ratio turn out when Fc1ccc(C(c2ccn(-c3ccc(Cl)cc3)c2)n2ccnc2)cc1 (stereo unspecified) was run?
Its Ratio is 0.3.

For Cc1ccc(C(c2ccc(-n3cccc3)cc2)n2ccnc2)cc1 (stereo unspecified), which Ratio is on record?
Its Ratio is 0.9.

How did the Ratio turn out when Cc1ccc(-c2cn(Cc3ccc(Cl)cc3Cl)cc2C(c2ccccc2)n2ccnc2)cc1 (stereo unspecified) was run?
The Ratio was 1.8.

For c1ccc(-c2c[nH]cc2C(c2ccc3ccccc3c2)n2ccnc2)cc1 (stereo unspecified), which Ratio is on record?
Its Ratio is 0.9.

Which Ratio does the source give for COc1ccc(C(Cc2ccc(Cl)cc2Cl)C(c2ccc(OC)cc2)n2ccnc2)cc1 (stereo unspecified) here?
Its Ratio is 1.5.

How did the Ratio turn out when Cn1cc(-c2ccc(Cl)cc2)c(C(c2ccccc2)n2ccnc2)c1 (stereo unspecified) was run?
Its Ratio is 0.

COc1ccc(C(C(Cc2ccc(Cl)cc2Cl)c2ccc(Cl)cc2)n2cncn2)cc1 (stereo unspecified) was tested. Which Ratio did it give?
Its Ratio is 1.8.

With Clc1ccc(-c2c[nH]cc2C(c2ccccc2)n2ccnc2)cc1 (stereo unspecified) as the compound, how does the Ratio read?
Its Ratio is 0.3.

c1ccc(-c2c[nH]cc2C(c2cccc3ccccc23)n2ccnc2)cc1 (stereo unspecified) was tested. Which Ratio did it give?
The Ratio was 0.9.

With Cc1ccc(C(c2ccc(NC(=O)c3ccc(Cl)cc3Cl)cc2)n2ccnc2)cc1 (stereo unspecified) as the compound, how does the Ratio read?
The Ratio was 0.

With COc1ccc(-c2cn(Cc3ccc(Cl)cc3Cl)cc2C(c2ccccc2)n2ccnc2)cc1 (stereo unspecified) as the compound, how does the Ratio read?
The Ratio was 1.8.

How did the Ratio turn out when c1ccc(-c2ccc(C(c3ccccc3)n3ccnc3)cc2)cc1 (stereo unspecified) [BIFONAZOLE] was run?
The Ratio was 0.

Clc1ccc(Cn2cc(-c3ccccc3)c(C(c3ccccc3)n3ccnc3)c2)c(Cl)c1 (stereo unspecified) was tested. Which Ratio did it give?
Its Ratio is 1.5.

With Clc1ccc(-c2cn(Cc3ccc(Cl)cc3Cl)cc2C(c2ccccc2)n2ccnc2)cc1 (stereo unspecified) as the compound, how does the Ratio read?
The Ratio was 1.8.

With Cc1ccc(C(c2ccn(-c3ccccc3)c2)n2ccnc2)cc1 (stereo unspecified) as the compound, how does the Ratio read?
The Ratio was 0.

How did the Ratio turn out when COc1ccc(C(Cc2ccccc2[N+](=O)[O-])n2ccnc2)cc1 (stereo unspecified) was run?
The Ratio was 2.1.

For COc1ccc(C(Cc2ccccc2-n2cccc2)n2ccnc2)cc1 (stereo unspecified), which Ratio is on record?
Its Ratio is 0.9.

Which Ratio does the source give for Cc1ccc(C(c2ccn(-c3ccc(F)cc3)c2)n2ccnc2)cc1 (stereo unspecified) here?
The Ratio was 0.3.

How did the Ratio turn out when Cn1cc(-c2ccc(F)cc2)c(C(c2ccccc2)n2ccnc2)c1 (stereo unspecified) was run?
The Ratio was 0.6.

With Fc1ccc(C(c2ccn(-c3ccc(F)cc3)c2)n2ccnc2)cc1 (stereo unspecified) as the compound, how does the Ratio read?
Its Ratio is 0.

For O=[N+]([O-])c1ccc(C(c2ccccc2)n2ccnc2)cc1 (stereo unspecified), which Ratio is on record?
The Ratio was 0.3.

How did the Ratio turn out when Cc1ccc(-c2cn(C)cc2C(c2ccccc2)n2ccnc2)cc1 (stereo unspecified) was run?
Its Ratio is 0.6.

How did the Ratio turn out when O=[N+]([O-])c1ccc(C(c2ccc(Cl)cc2)n2ccnc2)cc1 (stereo unspecified) was run?
The Ratio was 0.

For COc1ccc(C(Cc2cccc(Cl)c2)n2ccnc2)cc1 (stereo unspecified), which Ratio is on record?
Its Ratio is 1.5.

Fc1ccc(-c2c[nH]cc2C(c2ccccc2)n2ccnc2)cc1 (stereo unspecified) was tested. Which Ratio did it give?
Its Ratio is 0.

For COc1ccc(CC(c2ccc(OC)cc2)n2ccnc2)cc1 (stereo unspecified), which Ratio is on record?
The Ratio was 0.9.

For Clc1ccc(-n2ccc(C(c3ccccc3)n3ccnc3)c2)cc1 (stereo unspecified), which Ratio is on record?
The Ratio was 0.3.

Which Ratio does the source give for COc1ccc(C(Cc2cccc(-n3cccc3)c2)n2ccnc2)cc1 (stereo unspecified) here?
The Ratio was 1.8.

Which Ratio does the source give for Fc1ccc(C(c2ccn(-c3ccccc3)c2)n2ccnc2)cc1 (stereo unspecified) here?
Its Ratio is 0.3.

How did the Ratio turn out when Fc1ccc(-n2ccc(C(c3ccc(Cl)cc3)n3ccnc3)c2)cc1 (stereo unspecified) was run?
Its Ratio is 0.3.

CCC(c1ccc([N+](=O)[O-])cc1)C(c1ccc(OC)cc1)n1ccnc1 (stereo unspecified) was tested. Which Ratio did it give?
Its Ratio is 0.9.

With Cc1ccc(C(c2ccn(-c3ccc(Cl)cc3)c2)n2ccnc2)cc1 (stereo unspecified) as the compound, how does the Ratio read?
The Ratio was 0.

How did the Ratio turn out when COc1ccc(C(Cc2cccc(F)c2)n2ccnc2)cc1 (stereo unspecified) was run?
The Ratio was 1.8.

Which Ratio does the source give for Cc1ccc(C(c2ccc([N+](=O)[O-])cc2)n2ccnc2)cc1 (stereo unspecified) here?
The Ratio was 0.3.

COc1ccc(C(C(Cc2ccc(Cl)cc2Cl)c2ccc(Cl)cc2)n2ccnc2)cc1 (stereo unspecified) was tested. Which Ratio did it give?
Its Ratio is 1.2.

Which Ratio does the source give for c1ccc(C(c2ccn(-c3ccccc3)c2)n2ccnc2)cc1 (stereo unspecified) here?
Its Ratio is 0.6.

With CCC(c1ccc(Cl)cc1)C(c1ccc(OC)cc1)n1cncn1 (stereo unspecified) as the compound, how does the Ratio read?
The Ratio was 1.5.
